Values of other authors, collected in article PMC5774433 (MedChemComm, 2017).

System: menin

In the case of `CC1(C)CN=C(N2CCN(c3ncnc4sc(CC(F)(F)F)cc34)CC2)S1` [MI-2-2], the “increase in the binding affinity compared to its non-fluorinated counterpart” value is listed as “over 20 fold”.
